Assay results taken from the CheMixHub drug solubility set.

Test: xn = mol fraction of the nth substance listed, in the solute-free solvent

NCCS(=O)(=O)O + O + CC#N
solubility (g/100 g solution)
Details | 298.15 K | 303.15 K | 308.15 K | 313.15 K | 318.15 K
x2 = 0.6949 | 0.528 | 0.562 | 0.597 | 0.644 | 0.864
x2 = 0.7736 | 1.15 | 1.28 | 1.37 | 1.54 | 1.75
x2 = 0.8417 | 2.09 | 2.47 | 2.66 | 2.99 | 3.69
x2 = 0.9011 | 3.76 | 4.25 | 4.87 | 6.01 | 7.16
x2 = 0.9535 | 6.1 | 7.22 | 8.46 | 9.89 | 11.6

CN1CCC(N(Cc2cccs2)c2ccccc2)CC1 + CN(C)C=O + O
solubility (g/100 g solution)
Details | 278.15 K | 283.15 K | 288.15 K | 293.15 K | 298.15 K | 303.15 K | 308.15 K | 313.15 K | 318.15 K | 323.15 K
x2 = 0.02666 | 0.234 | 0.248 | 0.263 | 0.283 | 0.308 | 0.336 | 0.367 | 0.396 | 0.432 | 0.473
x2 = 0.05806 | 0.678 | 0.715 | 0.75 | 0.8 | 0.862 | 0.931 | 1.01 | 1.08 | 1.16 | 1.26
x2 = 0.09556 | 1.25 | 1.32 | 1.38 | 1.47 | 1.58 | 1.7 | 1.83 | 1.95 | 2.11 | 2.27
x2 = 0.1412 | 1.74 | 1.84 | 1.95 | 2.07 | 2.23 | 2.4 | 2.59 | 2.76 | 2.98 | 3.21
x2 = 0.1978 | 2.05 | 2.19 | 2.34 | 2.51 | 2.71 | 2.93 | 3.16 | 3.38 | 3.65 | 3.96
x2 = 0.27 | 2.31 | 2.46 | 2.65 | 2.87 | 3.12 | 3.38 | 3.66 | 3.93 | 4.27 | 4.64
x2 = 0.3652 | 2.53 | 2.75 | 2.99 | 3.25 | 3.54 | 3.83 | 4.16 | 4.52 | 4.89 | 5.35
x2 = 0.4965 | 2.78 | 3.02 | 3.28 | 3.6 | 3.95 | 4.31 | 4.69 | 5.09 | 5.53 | 6.09
x2 = 0.6893 | 2.78 | 3.07 | 3.4 | 3.73 | 4.13 | 4.53 | 4.98 | 5.42 | 5.95 | 6.54

Cc1ccc2cc(Br)ccc2n1 + CN(C)C=O + O
solubility (g/100 g solution)
Details | 278.15 K | 283.15 K | 288.15 K | 293.15 K | 298.15 K | 303.15 K | 308.15 K | 313.15 K | 318.15 K | 323.15 K
x2 = 0.02666 | 0.101 | 0.115 | 0.132 | 0.15 | 0.17 | 0.192 | 0.22 | 0.251 | 0.284 | 0.323
x2 = 0.05806 | 0.422 | 0.471 | 0.529 | 0.591 | 0.66 | 0.737 | 0.832 | 0.936 | 1.05 | 1.18
x2 = 0.09556 | 0.867 | 0.964 | 1.07 | 1.19 | 1.32 | 1.47 | 1.66 | 1.86 | 2.08 | 2.34
x2 = 0.1412 | 1.17 | 1.3 | 1.45 | 1.61 | 1.79 | 2 | 2.27 | 2.55 | 2.86 | 3.23
x2 = 0.1978 | 1.23 | 1.39 | 1.57 | 1.77 | 1.98 | 2.23 | 2.52 | 2.87 | 3.25 | 3.69
x2 = 0.27 | 1.27 | 1.43 | 1.63 | 1.85 | 2.11 | 2.39 | 2.74 | 3.13 | 3.57 | 4.1
x2 = 0.3652 | 1.38 | 1.58 | 1.8 | 2.04 | 2.31 | 2.62 | 2.99 | 3.45 | 3.97 | 4.61
x2 = 0.4965 | 1.52 | 1.77 | 2.05 | 2.31 | 2.62 | 3.01 | 3.5 | 4.08 | 4.7 | 5.46
x2 = 0.6893 | 1.67 | 1.91 | 2.2 | 2.61 | 2.99 | 3.44 | 3.98 | 4.63 | 5.36 | 6.25
